US11117903B2, “Pyridine derivatives” (Hoffmann-La Roche Inc., priority 2017, dated 2021)
Read-outs that look alike come from different tables or passages of the source.

Target: T1, human CB2 receptors (Homo sapiens, UniProt P34972)
T1 construct: expressed in transfected cells; host or cells: CHO cells
Assay: cAMP assay human CB2
Assay type: cell-based
Details: for Percent relative efficacy compared to the reference agonist CP55940 for which this value is set to +100%: negative values = inverse agonists, CP55940 = +100%
Method: The growth medium was exchanged with Krebs Ringer Bicarbonate buffer with 1 mM IBMX and incubated at 30° C. for 30 min. Compounds were added to a final assay volume of 100 μl and incubated for 30 min at 30° C. […] The time-resolved energy transfer is measured by a TRF reader (Evotec Technologies GmbH), equipped with a ND:YAG laser as excitation source. The plate is measured twice with the excitation at 355 nm and at the emission with a delay of 100 ns and a gate of 100 ns, total exposure time 10s at 730 (bandwidth 30 nm) or 645 nm (bandwidth 75 nm), respectively.
EC50 values were determined using Activity Base analysis (ID Business Solution, Limited).

[1] = CHO cells expressing human CB2 receptors, read-out: cAMP assay human CB2 EC50

T1 sequence (P34972 whole entry): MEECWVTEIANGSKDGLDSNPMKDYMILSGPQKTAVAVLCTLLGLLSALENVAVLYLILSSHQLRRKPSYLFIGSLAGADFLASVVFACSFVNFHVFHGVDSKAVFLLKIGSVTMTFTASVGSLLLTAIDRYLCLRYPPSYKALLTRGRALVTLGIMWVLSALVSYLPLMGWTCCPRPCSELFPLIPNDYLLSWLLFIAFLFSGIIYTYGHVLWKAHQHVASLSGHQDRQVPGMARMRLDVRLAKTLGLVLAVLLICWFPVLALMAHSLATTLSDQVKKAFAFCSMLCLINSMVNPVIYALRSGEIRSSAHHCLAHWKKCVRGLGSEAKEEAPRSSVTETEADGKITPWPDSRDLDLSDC

Compound	EC50 [1] [nM]	Percent relative efficacy compared to the reference agonist CP55940 for which this value is set to +100% [%]	EC50 [nM]
CNC(=O)[C@@H](NC(=O)c1cc(OCC2(C)COC2)c(C2CC2)cn1)C(C)(C)C [Example 13, 5-Cyclopropyl-N-[(2S)-3,3-dimethyl-1-(methylamino)-1-oxobutan-2-yl]-4-[(3-methyloxetan-3-yl)methoxy]pyridine-2-carboxamide]	26.1	−158.8	–
CC(C)(C)c1nc(-c2cc(OCc3cccc(S(C)(=O)=O)c3)c(C3CC3)cn2)no1 [Example 17, 5-tert-Butyl-3-[5-cyclopropyl-4-[(3-methylsulfonylphenyl)methoxy]pyridin-2-yl]-1,2,4-oxadiazole]	2010	−49.9	–
CC(CC(N)=O)(NC(=O)c1cc(OCc2ccc(F)cn2)c(C2CC2)cn1)C1CC1 (stereo not shown) [Example 22, N-(4-Amino-2-cyclopropyl-4-oxobutan-2-yl)-5-cyclopropyl-4-[(5-fluoropyridin-2-yl)methoxy]pyridine-2-carboxamide]	–	−78.4	47.1
Cc1nc(C(C)(CC2CC2)NC(=O)c2cc(On3nnc4ccccc43)c(C(F)(F)F)cn2)no1 (stereo not shown) [Example 21, 4-(Benzotriazol-1-yloxy)-N-[1-cyclopropyl-2-(5-methyl-1,2,4-oxadiazol-3-yl)propan-2-yl]-5-(trifluoromethyl)pyridine-2-carboxamide]	–	−147.5	87
O=C(N[C@@H]1CCCC[C@@H]1O)c1cc(-c2ccc(Cl)cc2)c(OCC2CC2)cn1 [Example 2, 4-(4-Chlorophenyl)-5-(cyclopropylmethoxy)-N-[(1R,2S)-2-hydroxycyclohexyl]pyridine-2-carboxamide]	–	−90.6	257
CCC(CC)(NC(=O)c1cc(-c2ccc(Cl)cc2)c(OCC2CC2)cn1)C(=O)OC [Example 4, Methyl 2-[[4-(4-chlorophenyl)-5-(cyclopropylmethoxy)pyridine-2-carbonyl]amino]-2-ethylbutanoate]	–	−70.5	14.4
O=C(N[C@H]1CCCC[C@H]1O)c1cc(-c2ccc(Cl)cc2)c(OCC2CC2)cn1 [Example 3, 4-(4-Chlorophenyl)-5-(cyclopropylmethoxy)-N-[(1 S,2R)-2-hydroxycyclohexyl]pyridine-2-carboxamide]	–	−85.1	46.6
CCOC(=O)C(CC)(CC)NC(=O)c1cc(OCC2(C)COC2)c(C2CC2)cn1 [Example 19, Ethyl 2-[[5-cyclopropyl-4-[(3-methyloxetan-3-yl)methoxy]pyridine-2-carbonyl]amino]-2-ethylbutanoate]	–	13	148
CC(C)(C)OC(=O)N1CC[C@@H](Oc2cc(-c3noc(C(C)(C)C)n3)ncc2C2CC2)C1 [Example 16, tert-Butyl (3R)-3-[2-(5-tert-butyl-1,2,4-oxadiazol-3-yl)-5-cyclopropylpyridin-4-yl]oxypyrrolidine-1-carboxylate]	–	−103.1	315
CC(C)(C)c1nc(-c2cc(OCC3CC3)c(N3CC4(COC4)C3)cn2)no1 [Example 14, 6-[6-(5-tert-Butyl-1,2,4-oxadiazol-3-yl)-4-(cyclopropylmethoxy)pyridin-3-yl]-2-oxa-6-azaspiro[3.3]heptane]	–	−65.9	36.7
CNC(=O)[C@@H](NC(=O)c1cc(OCC2CC2)c(Cl)cn1)C(C)(C)C [Example 8, 5-Chloro-4-(cyclopropylmethoxy)-N-[(2S)-3,3-dimethyl-1-(methylamino)-1-oxobutan-2-yl]pyridine-2-carboxamide]	–	−141.9	4.4
Cc1nc(C(C)(CC2CC2)NC(=O)c2cc(OCC3(C)CC3(F)F)c(Cl)cn2)no1 (stereo not shown) [Example 20, 5-Chloro-N-[1-cyclopropyl-2-(5-methyl-1,2,4-oxadiazol-3-yl)propan-2-yl]-4-[(2,2-difluoro-1-methylcyclopropyl)methoxy]pyridine-2-carboxamide]	–	−150.8	420
CCC(CC)(NC(=O)c1cc(-c2ccc(Cl)c(Cl)c2)c(OCC2CC2)cn1)C(=O)OC [Example 5, Methyl 2-[[5-(cyclopropylmethoxy)-4-(3,4-dichlorophenyl)pyridine-2-carbonyl]amino]-2-ethylbutanoate]	–	−128.6	6.9
CC(C)C[C@@H](CO)NC(=O)c1cc(-c2ccc(Cl)cc2Cl)c(OCC2CC2)cn1 [Example 1, 5-(Cyclopropylmethoxy)-4-(2,4-dichlorophenyl)-N-[(2S)-1-hydroxy-4-methylpentan-2-yl]pyridine-2-carboxamide]	–	−40.1	15.2
O=C(N[C@@H](CO)c1ccccc1)c1cc(OCC2CC2)c(Cl)cn1 [Example 7, 5-Chloro-4-(cyclopropylmethoxy)-N-[(1R)-2-hydroxy-1-phenylethyl]pyridine-2-carboxamide]	–	−41.7	497
CNC(=O)[C@H](CC(C)C)NC(=O)c1cc(OCC2CC2)c(Cl)cn1 [Example 11, 5-Chloro-4-(cyclopropylmethoxy)-N-[(2S)-4-methyl-1-(methylamino)-1-oxopentan-2-yl]pyridine-2-carboxamide]	–	−28.5	181
CC(C)(C)OC(=O)N1CCC[C@H]1COc1cc(-c2noc(C(C)(C)C)n2)ncc1C1CC1 [Example 15, tert-Butyl (2S)-2-[[2-(5-tert-butyl-1,2,4-oxadiazol-3-yl)-5-cyclopropylpyridin-4-yl]oxymethyl]pyrrolidine-1-carboxylate]	–	−75.2	1510
O=C(N[C@@H](c1ccccn1)C(F)(F)F)c1cc(OCC2CC2)c(Cl)cn1 [Example 9, (−) 5-Chloro-4-(cyclopropylmethoxy)-N-[2,2,2-trifluoro-1-pyridin-2-ylethyl]pyridine-2-carboxamide]	–	−114.7	296
CNC(=O)[C@@H](CC(C)C)NC(=O)c1cc(OCC2CC2)c(Cl)cn1 [Example 12, 5-Chloro-4-(cyclopropylmethoxy)-N-[(2R)-4-methyl-1-(methylamino)-1-oxopentan-2-yl]pyridine-2-carboxamide]	–	−40.1	3230
O=C(N[C@H](c1cccnc1)C(F)(F)F)c1cc(OCC2CC2)c(Cl)cn1 [Example 10, 5-Chloro-4-(cyclopropylmethoxy)-N-[(1R)-2,2,2-trifluoro-1-pyridin-3-ylethyl]pyridine-2-carboxamide]	–	−36.8	1560
Cc1nc([C@](C)(CC2CC2)NC(=O)c2cc(-c3ccc(F)nc3)c(OCc3ccccc3)cn2)no1 [Example 23, N-[(2S)-1-Cyclopropyl-2-(5-methyl-1,2,4-oxadiazol-3-yl)propan-2-yl]-4-(6-fluoropyridin-3-yl)-5-phenylmethoxypyridine-2-carboxamide]	–	−87.7	1030
Cc1nnc(C(C)(NC(=O)c2cc(OCC(F)(F)F)c(C3CC3)cn2)C2CNC2)o1 (stereo not shown) [Example 18, N-[1-(azetidin-3-yl)-1-(5-methyl-1,3,4-oxadiazol-2-yl)ethyl]-5-cyclopropyl-4-(2,2,2-trifluoroethoxy)pyridine-2-carboxamide]	7210	−48.7	–
CO[C@H]1CCCC[C@H]1NC(=O)c1cc(-c2ccc(Cl)cc2)c(OCC2CC2)cn1 [Example 6, 4-(4-chlorophenyl)-5-(cyclopropylmethoxy)-N-[(1R,2S)-2-methoxycyclohexyl]pyridine-2-carboxamide]	–	−102.9	124
